Data published in PubChem BioAssay (NCI).
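96-well plates; 48 h exposure; 5 concentrations. Endpoints by linear interpolation between flanking doses. Not reached: highest tested concentration assigned. At the GI50, growth is halved. At the TGI there is no net growth.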

Legend:
Experiment in all cases: NCI anticancer screen, dose series, 48 h
SK-MEL-28 melanoma = test system: SK-MEL-28 melanoma
UACC-62 melanoma = test system: UACC-62 melanoma
SN12C renal = test system: SN12C renal
UO-31 renal = test system: UO-31 renal
IGROV1 ovarian = test system: IGROV1 ovarian
MDA-MB-231 breast = test system: MDA-MB-231 breast
MALME-3M melanoma = test system: MALME-3M melanoma
NCI-H23 lung = test system: NCI-H23 lung
SK-OV-3 ovarian = test system: SK-OV-3 ovarian
HT29 colon = test system: HT29 colon
UACC-257 melanoma = test system: UACC-257 melanoma
TK-10 renal = test system: TK-10 renal
OVCAR-3 ovarian = test system: OVCAR-3 ovarian
HOP-62 NSCLC = test system: HOP-62 NSCLC
CAKI-1 renal = test system: CAKI-1 renal
EKVX NSCLC = test system: EKVX NSCLC
OVCAR-5 ovarian = test system: OVCAR-5 ovarian
SK-MEL-2 melanoma = test system: SK-MEL-2 melanoma
RPMI-8226 leukemia = test system: RPMI-8226 leukemia
NCI/ADR-RES ovarian = test system: NCI/ADR-RES ovarian
T-47D breast = test system: T-47D breast
HL-60(TB) leukemia = test system: HL-60(TB) leukemia
DU-145 prostate = test system: DU-145 prostate
COLO 205 colon = test system: COLO 205 colon
MCF7 breast = test system: MCF7 breast
SF-295 CNS = test system: SF-295 CNS
HCT-15 colon = test system: HCT-15 colon
BT-549 breast = test system: BT-549 breast
HCC-2998 colon = test system: HCC-2998 colon
HS 578T breast = test system: HS 578T breast
KM12 colon = test system: KM12 colon
K-562 leukemia = test system: K-562 leukemia
HCT-116 colon = test system: HCT-116 colon
A498 renal = test system: A498 renal
OVCAR-8 ovarian = test system: OVCAR-8 ovarian
NCI-H226 lung = test system: NCI-H226 lung
786-0 renal = test system: 786-0 renal
PC-3 prostate = test system: PC-3 prostate
NCI-H460 lung = test system: NCI-H460 lung
SNB-19 CNS = test system: SNB-19 CNS
SK-MEL-5 melanoma = test system: SK-MEL-5 melanoma
NCI-H522 lung = test system: NCI-H522 lung
CCRF-CEM leukemia = test system: CCRF-CEM leukemia
MOLT-4 leukemia = test system: MOLT-4 leukemia
HOP-92 NSCLC = test system: HOP-92 NSCLC
ACHN renal = test system: ACHN renal
SR leukemia = test system: SR leukemia
U251 CNS = test system: U251 CNS
SNB-75 CNS = test system: SNB-75 CNS
RXF 393 renal = test system: RXF 393 renal
M14 melanoma = test system: M14 melanoma
SF-268 CNS = test system: SF-268 CNS
MDA-MB-435 = test system: MDA-MB-435
SW-620 colon = test system: SW-620 colon
LOX IMVI melanoma = test system: LOX IMVI melanoma
SF-539 CNS = test system: SF-539 CNS
OVCAR-4 ovarian = test system: OVCAR-4 ovarian
A549 NSCLC = test system: A549 NSCLC

Compound `CCCn1cnc2c(c1=N)C(c1ccc(F)cc1)c1sc3c(C)cccc3c1O2` (stereo unspecified) has a GI50 (SK-MEL-28 melanoma) of 5.79 µM, a TGI (SK-MEL-28 melanoma) of 22.7 µM and a GI50 (UACC-62 melanoma) of 0.443 µM. The TGI (UACC-62 melanoma) was 13.8 µM, the GI50 (SN12C renal) was 2.94 µM and the TGI (SN12C renal) was 14.9 µM. It also gave a GI50 (UO-31 renal) of 0.662 µM, a TGI (UO-31 renal) of 15.1 µM and a GI50 (IGROV1 ovarian) of 1.23 µM. The TGI (IGROV1 ovarian) was 13.1 µM, the GI50 (MDA-MB-231 breast) was 3.09 µM and the TGI (MDA-MB-231 breast) was 15.7 µM. The GI50 (MALME-3M melanoma) was 2.66 µM, the TGI (MALME-3M melanoma) was 24.2 µM and the GI50 (NCI-H23 lung) was 1.62 µM. The TGI (NCI-H23 lung) was 10.9 µM, the GI50 (SK-OV-3 ovarian) was 2.23 µM and the TGI (SK-OV-3 ovarian) was 38.8 µM. For the same compound, the GI50 (HT29 colon) was 3.16 µM, the TGI (HT29 colon) was 12.8 µM and the GI50 (UACC-257 melanoma) was 15.6 µM. The TGI (UACC-257 melanoma) was 39.5 µM, the GI50 (TK-10 renal) was 16.1 µM and the TGI (TK-10 renal) was 61.5 µM. The GI50 (OVCAR-3 ovarian) was 0.815 µM, the TGI (OVCAR-3 ovarian) was 10.6 µM and the GI50 (HOP-62 NSCLC) was 2.08 µM. The TGI (HOP-62 NSCLC) was 31.1 µM, the GI50 (CAKI-1 renal) was 0.546 µM and the TGI (CAKI-1 renal) was > 39.5 µM. It also gave a GI50 (EKVX NSCLC) of 3.7 µM, a TGI (EKVX NSCLC) of 27.6 µM and a GI50 (OVCAR-5 ovarian) of 3.66 µM. It also gave a TGI (OVCAR-5 ovarian) of 18.4 µM, a GI50 (SK-MEL-2 melanoma) of 5.41 µM and a TGI (SK-MEL-2 melanoma) of 30.1 µM. The GI50 (RPMI-8226 leukemia) was 0.961 µM, the TGI (RPMI-8226 leukemia) was 7.91 µM and the GI50 (NCI/ADR-RES ovarian) was 0.425 µM. The TGI (NCI/ADR-RES ovarian) was 6.99 µM, the GI50 (T-47D breast) was 1.97 µM and the TGI (T-47D breast) was 41.9 µM. For the same compound, the GI50 (HL-60(TB) leukemia) was 1.48 µM, the TGI (HL-60(TB) leukemia) was 7.87 µM and the GI50 (DU-145 prostate) was 3.34 µM. For the same compound, the TGI (DU-145 prostate) was 29.5 µM, the GI50 (COLO 205 colon) was 2.6 µM and the TGI (COLO 205 colon) was 8.22 µM. The GI50 (MCF7 breast) was 0.351 µM, the TGI (MCF7 breast) was 13.8 µM and the GI50 (SF-295 CNS) was 0.581 µM. It also gave a TGI (SF-295 CNS) of 11 µM, a GI50 (HCT-15 colon) of 1.05 µM and a TGI (HCT-15 colon) of 12.7 µM. For the same compound, the GI50 (BT-549 breast) was 5.84 µM, the TGI (BT-549 breast) was 22.8 µM and the GI50 (HCC-2998 colon) was 2.01 µM. The TGI (HCC-2998 colon) was 6.08 µM, the GI50 (HS 578T breast) was 0.961 µM and the TGI (HS 578T breast) was 14.3 µM. The GI50 (KM12 colon) was 1.63 µM, the TGI (KM12 colon) was > 36.3 µM and the GI50 (K-562 leukemia) was 0.358 µM. For the same compound, the TGI (K-562 leukemia) was 22.6 µM, the GI50 (HCT-116 colon) was 0.467 µM and the TGI (HCT-116 colon) was 11.8 µM. It also gave a GI50 (A498 renal) of 0.584 µM, a TGI (A498 renal) of 3.95 µM and a GI50 (OVCAR-8 ovarian) of 3.79 µM. The TGI (OVCAR-8 ovarian) was 31 µM, the GI50 (NCI-H226 lung) was 2.87 µM and the TGI (NCI-H226 lung) was 15.1 µM. It also gave a GI50 (786-0 renal) of 1.08 µM, a TGI (786-0 renal) of 14.5 µM and a GI50 (PC-3 prostate) of 0.638 µM. For the same compound, the TGI (PC-3 prostate) was 15.2 µM, the GI50 (NCI-H460 lung) was 1.05 µM and the TGI (NCI-H460 lung) was 11.5 µM. It also gave a GI50 (SNB-19 CNS) of 2.4 µM, a TGI (SNB-19 CNS) of 18.4 µM and a GI50 (SK-MEL-5 melanoma) of 1.25 µM. It also gave a TGI (SK-MEL-5 melanoma) of 11.9 µM, a GI50 (NCI-H522 lung) of 0.4 µM and a TGI (NCI-H522 lung) of 12.1 µM. The GI50 (CCRF-CEM leukemia) was 1.03 µM, the TGI (CCRF-CEM leukemia) was > 43.8 µM and the GI50 (MOLT-4 leukemia) was 3.48 µM. The TGI (MOLT-4 leukemia) was > 54.2 µM, the GI50 (HOP-92 NSCLC) was 0.458 µM and the TGI (HOP-92 NSCLC) was 7.5 µM. For the same compound, the GI50 (ACHN renal) was 1.45 µM, the TGI (ACHN renal) was 16.1 µM and the GI50 (SR leukemia) was 0.648 µM. For the same compound, the TGI (SR leukemia) was 15.6 µM, the GI50 (U251 CNS) was 2.07 µM and the TGI (U251 CNS) was 18.1 µM. It also gave a GI50 (SNB-75 CNS) of 0.321 µM, a TGI (SNB-75 CNS) of 13.8 µM and a GI50 (RXF 393 renal) of 0.227 µM. The TGI (RXF 393 renal) was 0.741 µM, the GI50 (M14 melanoma) was 0.637 µM and the TGI (M14 melanoma) was 11.3 µM. For the same compound, the GI50 (SF-268 CNS) was 2.71 µM, the TGI (SF-268 CNS) was 21.9 µM and the GI50 (MDA-MB-435) was 0.328 µM. It also gave a TGI (MDA-MB-435) of 1.27 µM, a GI50 (SW-620 colon) of 1.32 µM and a TGI (SW-620 colon) of 18.8 µM. The GI50 (LOX IMVI melanoma) was 0.962 µM, the TGI (LOX IMVI melanoma) was 13.2 µM and the GI50 (SF-539 CNS) was 1.16 µM. The TGI (SF-539 CNS) was 5.07 µM, the GI50 (OVCAR-4 ovarian) was 2.79 µM and the TGI (OVCAR-4 ovarian) was > 42.5 µM. For the same compound, the GI50 (A549 NSCLC) was 2.15 µM and the TGI (A549 NSCLC) was > 48.8 µM.
